Holding throughout (type): functional
In test [1] the target is Dual specificity tyrosine-phosphorylation-regulated kinase 1A (Homo sapiens, UniProt Q13627).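 Further: measured against DYRK1A as one member of a broad kinome profiling panel.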
The target of test [2] is Tyrosine-protein kinase receptor TYRO3 (Homo sapiens, UniProt Q06418).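 Further: TYRO3 value obtained as one member of a kinome-wide profiling panel.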
The target of test [3] is Vascular endothelial growth factor receptor 1 (Homo sapiens, UniProt P17948).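 Further: measured within a kinome-wide profiling panel, FLT1 as the panel member.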
The target in test [4] is Tyrosine-protein kinase SYK (Homo sapiens, UniProt P43405).
Test [5] has as its target Platelet-derived growth factor receptor alpha (Homo sapiens, UniProt P16234). The experiment in a line: Navigating the Kinome. Panel member name: PDGFRA.
The target in test [6] is Cyclin-dependent kinase 9 (Homo sapiens, UniProt P50750).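 Further: value from the CDK9 entry of a kinome-spanning kinase panel.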
In test [7] the target is BDNF/NT-3 growth factors receptor (Homo sapiens, UniProt Q16620).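 Further: NTRK2 measured as one member of a broad kinome-wide kinase profiling panel.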
For test [8], the target named is Proto-oncogene tyrosine-protein kinase receptor Ret (Homo sapiens, UniProt P07949).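 Further: measured within a kinome-wide profiling panel, RET as the panel member.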
Test [9] deals with Leukocyte tyrosine kinase receptor (Homo sapiens, UniProt P29376). The experiment in a line: Navigating the Kinome. Panel member name: LTK.
Test [10] has as its target Casein kinase I isoform alpha (Homo sapiens, UniProt P48729).
For test [11], the target named is Macrophage-stimulating protein receptor (Homo sapiens, UniProt Q04912). The experiment in a line: Navigating the Kinome. Panel member name: MST1R.
Macrophage-stimulating protein receptor, sequence (Q04912 25-304 limits assumed): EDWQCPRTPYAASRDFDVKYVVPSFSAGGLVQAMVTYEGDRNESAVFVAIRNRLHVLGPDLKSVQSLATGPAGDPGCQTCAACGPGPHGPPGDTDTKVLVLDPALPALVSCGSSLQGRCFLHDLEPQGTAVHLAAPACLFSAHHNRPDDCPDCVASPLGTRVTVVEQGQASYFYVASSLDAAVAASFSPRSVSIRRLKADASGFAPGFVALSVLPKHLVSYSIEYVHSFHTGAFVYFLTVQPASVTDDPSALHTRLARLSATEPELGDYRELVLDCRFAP
Macrophage-stimulating protein receptor, sequence (Q04912 310-1400 limits assumed): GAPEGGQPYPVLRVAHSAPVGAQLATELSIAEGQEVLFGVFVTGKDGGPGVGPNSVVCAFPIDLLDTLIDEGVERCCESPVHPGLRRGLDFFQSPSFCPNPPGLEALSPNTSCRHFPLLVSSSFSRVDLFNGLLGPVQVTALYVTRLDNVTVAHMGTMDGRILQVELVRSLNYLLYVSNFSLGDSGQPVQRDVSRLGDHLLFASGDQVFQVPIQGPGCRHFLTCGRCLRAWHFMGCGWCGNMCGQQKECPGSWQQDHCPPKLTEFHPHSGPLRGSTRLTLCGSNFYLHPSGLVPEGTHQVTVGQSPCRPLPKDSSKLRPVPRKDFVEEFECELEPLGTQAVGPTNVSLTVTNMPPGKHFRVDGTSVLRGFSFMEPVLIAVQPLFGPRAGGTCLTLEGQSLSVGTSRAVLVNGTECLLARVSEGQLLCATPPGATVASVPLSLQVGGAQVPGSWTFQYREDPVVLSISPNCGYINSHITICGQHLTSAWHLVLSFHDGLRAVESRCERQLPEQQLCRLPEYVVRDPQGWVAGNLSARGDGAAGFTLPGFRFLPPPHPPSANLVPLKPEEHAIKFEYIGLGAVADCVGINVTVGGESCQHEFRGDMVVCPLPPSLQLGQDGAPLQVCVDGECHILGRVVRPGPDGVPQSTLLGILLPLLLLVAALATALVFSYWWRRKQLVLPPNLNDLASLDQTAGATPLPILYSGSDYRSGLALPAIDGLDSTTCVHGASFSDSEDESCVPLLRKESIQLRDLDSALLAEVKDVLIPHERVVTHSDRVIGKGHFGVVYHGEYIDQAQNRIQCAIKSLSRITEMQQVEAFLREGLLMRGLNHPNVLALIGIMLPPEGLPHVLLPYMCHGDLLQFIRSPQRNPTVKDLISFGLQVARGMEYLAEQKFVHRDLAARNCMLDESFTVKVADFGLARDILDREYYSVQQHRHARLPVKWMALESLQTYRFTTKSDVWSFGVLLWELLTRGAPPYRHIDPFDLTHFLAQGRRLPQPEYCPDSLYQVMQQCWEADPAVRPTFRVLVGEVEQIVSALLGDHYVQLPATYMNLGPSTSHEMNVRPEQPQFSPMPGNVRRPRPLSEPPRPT
Test [12] concerns the target Activated CDC42 kinase 1 (Homo sapiens, UniProt Q07912). The experiment in a line: Navigating the Kinome. Panel member name: ACK1.
Test [13] concerns the target 5'-AMP-activated protein kinase catalytic subunit alpha-1 (Homo sapiens, UniProt Q13131).
In test [14] the target is Tyrosine-protein kinase JAK2 (Homo sapiens, UniProt O60674).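 Further: JAK2 tested as one member of a kinase panel.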
Tyrosine-protein kinase JAK2, sequence (O60674 whole entry): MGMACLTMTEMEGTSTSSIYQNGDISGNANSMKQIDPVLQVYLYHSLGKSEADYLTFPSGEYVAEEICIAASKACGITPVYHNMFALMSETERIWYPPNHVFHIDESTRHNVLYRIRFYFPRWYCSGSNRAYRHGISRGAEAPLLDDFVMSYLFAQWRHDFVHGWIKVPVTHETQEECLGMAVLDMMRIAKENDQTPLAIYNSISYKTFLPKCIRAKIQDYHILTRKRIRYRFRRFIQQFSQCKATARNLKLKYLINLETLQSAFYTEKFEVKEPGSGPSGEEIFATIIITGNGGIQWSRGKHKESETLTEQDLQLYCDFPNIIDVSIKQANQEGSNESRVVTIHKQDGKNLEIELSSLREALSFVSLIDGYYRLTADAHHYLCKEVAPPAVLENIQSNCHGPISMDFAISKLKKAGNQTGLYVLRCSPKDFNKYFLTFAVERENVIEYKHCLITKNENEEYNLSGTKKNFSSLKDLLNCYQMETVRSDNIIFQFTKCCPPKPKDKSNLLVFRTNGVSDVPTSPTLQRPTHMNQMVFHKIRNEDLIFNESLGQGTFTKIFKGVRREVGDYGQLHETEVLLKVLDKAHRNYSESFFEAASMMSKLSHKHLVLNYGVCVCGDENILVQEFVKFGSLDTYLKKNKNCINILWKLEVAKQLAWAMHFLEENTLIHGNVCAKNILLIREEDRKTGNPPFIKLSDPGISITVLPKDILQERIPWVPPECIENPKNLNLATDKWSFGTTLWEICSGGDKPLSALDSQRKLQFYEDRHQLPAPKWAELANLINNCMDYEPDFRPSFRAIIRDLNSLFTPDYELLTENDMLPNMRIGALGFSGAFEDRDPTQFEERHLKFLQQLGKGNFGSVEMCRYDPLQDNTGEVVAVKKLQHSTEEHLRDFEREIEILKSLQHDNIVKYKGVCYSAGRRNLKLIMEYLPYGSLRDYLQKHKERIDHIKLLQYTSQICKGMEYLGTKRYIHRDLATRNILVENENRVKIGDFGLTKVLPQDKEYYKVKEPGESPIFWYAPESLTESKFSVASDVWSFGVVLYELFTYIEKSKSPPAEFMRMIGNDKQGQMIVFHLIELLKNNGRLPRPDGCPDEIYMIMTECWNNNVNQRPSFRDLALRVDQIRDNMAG
Test [15] concerns the target cAMP-dependent protein kinase catalytic subunit alpha (Homo sapiens, UniProt P17612).
In test [16] the target is Aurora kinase B (Homo sapiens, UniProt Q96GD4).
The target in test [17] is Inhibitor of nuclear factor kappa-B kinase subunit epsilon (Homo sapiens, UniProt Q14164). Briefly: Navigating the Kinome. Panel member name: IKBKE.
Test [18] has as its target Misshapen-like kinase 1 (Homo sapiens, UniProt Q8N4C8).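 Further: kinome panel screen with MINK as the panel member.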
In test [19] the target is Maternal embryonic leucine zipper kinase (Homo sapiens, UniProt Q14680).
Test [20] concerns the target cAMP-dependent protein kinase catalytic subunit PRKX (Homo sapiens, UniProt P51817).
The target of test [21] is Homeodomain-interacting protein kinase 2 (Homo sapiens, UniProt Q9H2X6).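 Further: measured within a kinome-wide kinase profiling panel, HIPK2 being one panel member.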
In test [22] the target is T1, Aurora kinase A (Homo sapiens, UniProt O14965).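 Further: value from the Navigating the Kinome kinase panel profiling, panel entry STK6.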
T1 sequence (O14965 whole entry): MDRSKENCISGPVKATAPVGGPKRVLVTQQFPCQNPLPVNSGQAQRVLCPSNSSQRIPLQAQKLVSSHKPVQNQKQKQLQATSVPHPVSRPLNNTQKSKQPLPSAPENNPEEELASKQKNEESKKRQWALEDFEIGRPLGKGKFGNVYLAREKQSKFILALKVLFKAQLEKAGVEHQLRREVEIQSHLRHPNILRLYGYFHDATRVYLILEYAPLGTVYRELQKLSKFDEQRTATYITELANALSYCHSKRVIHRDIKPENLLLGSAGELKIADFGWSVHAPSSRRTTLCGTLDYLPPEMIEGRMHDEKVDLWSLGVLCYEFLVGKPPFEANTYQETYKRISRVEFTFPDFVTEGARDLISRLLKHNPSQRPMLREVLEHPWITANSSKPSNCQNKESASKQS

For test [23], the target named is Tyrosine-protein kinase ABL1 (Homo sapiens, UniProt P00519).
In test [24] the target is Serine/threonine-protein kinase Nek2 (Homo sapiens, UniProt P51955).
Test [25] has as its target Dual specificity protein kinase CLK2 (Homo sapiens, UniProt P49760).
The target in test [26] is High affinity nerve growth factor receptor (Homo sapiens, UniProt P04629).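 Further: NTRK1 tested as one member of a kinome-wide profiling panel.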
Test [27] concerns the target Serine/threonine-protein kinase 17A (Homo sapiens, UniProt Q9UEE5).
Test [28] deals with Activin receptor type-1 (Homo sapiens, UniProt Q04771). The experiment in a line: Navigating the Kinome. Panel member name: ACVR1.
Test [29] addresses Tyrosine-protein kinase Lck (Homo sapiens, UniProt P06239).
For test [30], the target named is Glycogen synthase kinase-3 alpha (Homo sapiens, UniProt P49840).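 Further: GSK3A result taken from a broad kinome-wide kinase panel.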
Test [31] addresses Mitogen-activated protein kinase 13 (Homo sapiens, UniProt O15264).

Active and inactive are the calls of the source.

Tyrosine-protein kinase receptor TYRO3, sequence (Q06418 whole entry): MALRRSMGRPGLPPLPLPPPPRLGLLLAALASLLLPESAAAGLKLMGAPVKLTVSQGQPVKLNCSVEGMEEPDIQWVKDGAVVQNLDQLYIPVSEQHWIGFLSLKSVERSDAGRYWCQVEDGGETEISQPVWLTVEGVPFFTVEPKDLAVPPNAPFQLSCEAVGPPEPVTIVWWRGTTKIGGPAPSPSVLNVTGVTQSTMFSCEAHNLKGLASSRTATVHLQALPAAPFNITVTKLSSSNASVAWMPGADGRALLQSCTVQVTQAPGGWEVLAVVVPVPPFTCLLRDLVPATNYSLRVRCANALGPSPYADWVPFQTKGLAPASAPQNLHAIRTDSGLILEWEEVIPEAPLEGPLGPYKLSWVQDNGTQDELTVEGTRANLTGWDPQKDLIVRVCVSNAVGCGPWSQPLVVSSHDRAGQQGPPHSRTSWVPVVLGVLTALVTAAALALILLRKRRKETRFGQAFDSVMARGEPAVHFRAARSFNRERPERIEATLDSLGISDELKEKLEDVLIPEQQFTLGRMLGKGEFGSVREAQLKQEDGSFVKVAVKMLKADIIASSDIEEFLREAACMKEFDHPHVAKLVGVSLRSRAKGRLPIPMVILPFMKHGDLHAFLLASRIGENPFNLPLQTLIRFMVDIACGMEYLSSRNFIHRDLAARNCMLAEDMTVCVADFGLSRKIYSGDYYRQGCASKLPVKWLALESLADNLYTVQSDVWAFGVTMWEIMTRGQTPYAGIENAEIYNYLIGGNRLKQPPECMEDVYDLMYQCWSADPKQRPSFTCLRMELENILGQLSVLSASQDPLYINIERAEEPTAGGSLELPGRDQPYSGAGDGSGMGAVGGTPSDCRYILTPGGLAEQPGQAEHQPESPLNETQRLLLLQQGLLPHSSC
Misshapen-like kinase 1, sequence (Q8N4C8 whole entry): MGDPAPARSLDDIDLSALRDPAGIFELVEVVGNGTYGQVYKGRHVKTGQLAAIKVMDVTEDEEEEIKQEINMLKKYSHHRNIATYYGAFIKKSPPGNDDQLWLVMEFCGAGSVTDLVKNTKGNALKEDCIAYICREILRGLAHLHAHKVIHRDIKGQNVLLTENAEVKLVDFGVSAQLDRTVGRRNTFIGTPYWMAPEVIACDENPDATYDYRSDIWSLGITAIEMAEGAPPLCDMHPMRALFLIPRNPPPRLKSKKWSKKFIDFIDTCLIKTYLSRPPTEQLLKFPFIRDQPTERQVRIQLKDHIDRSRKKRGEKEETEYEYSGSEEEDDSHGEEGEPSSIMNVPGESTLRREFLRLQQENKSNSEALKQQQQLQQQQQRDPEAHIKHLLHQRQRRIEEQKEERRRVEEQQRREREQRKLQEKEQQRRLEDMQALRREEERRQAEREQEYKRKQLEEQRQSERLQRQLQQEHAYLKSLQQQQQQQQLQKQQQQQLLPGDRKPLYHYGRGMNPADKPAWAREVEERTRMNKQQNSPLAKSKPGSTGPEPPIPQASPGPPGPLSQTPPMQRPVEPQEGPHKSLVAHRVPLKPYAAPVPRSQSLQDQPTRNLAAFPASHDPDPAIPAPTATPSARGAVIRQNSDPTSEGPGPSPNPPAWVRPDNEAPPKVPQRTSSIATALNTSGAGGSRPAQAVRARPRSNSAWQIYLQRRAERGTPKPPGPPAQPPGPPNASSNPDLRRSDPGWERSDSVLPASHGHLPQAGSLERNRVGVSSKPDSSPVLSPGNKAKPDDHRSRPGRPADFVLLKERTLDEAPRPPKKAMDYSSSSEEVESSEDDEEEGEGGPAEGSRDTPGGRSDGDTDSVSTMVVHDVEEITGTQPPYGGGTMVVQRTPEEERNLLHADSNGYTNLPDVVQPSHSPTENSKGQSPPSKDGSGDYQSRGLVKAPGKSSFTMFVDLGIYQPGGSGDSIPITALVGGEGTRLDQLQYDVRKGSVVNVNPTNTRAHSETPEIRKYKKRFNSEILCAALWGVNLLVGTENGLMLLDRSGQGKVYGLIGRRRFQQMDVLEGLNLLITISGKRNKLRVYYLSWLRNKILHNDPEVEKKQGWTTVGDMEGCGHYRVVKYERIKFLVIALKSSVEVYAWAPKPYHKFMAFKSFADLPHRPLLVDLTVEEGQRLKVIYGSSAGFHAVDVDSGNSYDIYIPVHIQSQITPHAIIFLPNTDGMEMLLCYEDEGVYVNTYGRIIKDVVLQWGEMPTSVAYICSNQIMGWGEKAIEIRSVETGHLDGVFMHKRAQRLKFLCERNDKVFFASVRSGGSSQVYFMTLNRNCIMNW
Casein kinase I isoform alpha, sequence (P48729 whole entry, canonical isoform): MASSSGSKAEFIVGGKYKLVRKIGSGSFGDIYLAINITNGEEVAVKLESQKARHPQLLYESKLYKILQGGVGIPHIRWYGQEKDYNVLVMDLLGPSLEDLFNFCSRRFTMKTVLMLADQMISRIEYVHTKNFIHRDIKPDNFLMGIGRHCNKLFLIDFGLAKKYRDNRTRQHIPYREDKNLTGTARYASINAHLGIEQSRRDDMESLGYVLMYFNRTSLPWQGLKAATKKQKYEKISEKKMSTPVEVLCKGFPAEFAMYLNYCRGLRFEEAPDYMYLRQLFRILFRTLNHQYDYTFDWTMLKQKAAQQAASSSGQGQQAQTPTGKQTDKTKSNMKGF

Take `O=C(Nc1n[nH]c2ccc(-c3cn(Cc4ccccc4)nn3)cc12)c1cc(F)ccc1F`: the inhibitory constant (Ki) was 0.0501 µM (active) in test [1]; > 3.16 µM (inactive) in test [2]; > 3.98 µM (inactive) in [3]; > 1.58 µM (inactive) in [4]; > 2.51 µM (inactive) in test [5]; 0.398 µM (active) in test [6]. Besides, the Ki in test [7] was > 3.98 µM (inactive); in [8], 2 µM (active); in test [9], > 2.51 µM (inactive); in test [10], 1.58 µM (active); in [11], 2.51 µM (active); in [12], > 3.98 µM (inactive). In addition, the inhibitory constant (Ki) was 0.398 µM (active) in test [13]; > 2.51 µM (inactive) in test [14]; > 2.51 µM (inactive) in test [15]; > 3.98 µM (inactive) in test [16]; 1.26 µM (active) in test [17]; > 2.51 µM (inactive) in test [18]. Also, the Ki in test [19] is 0.398 µM (active); in [20], 0.316 µM (active); in test [21], 0.1 µM (active); in test [22], > 1.58 µM (inactive); in test [23], > 2.51 µM (inactive); in [24], > 3.16 µM (inactive). The inhibition constant Ki is 0.126 µM (active) in test [25]; > 3.16 µM (inactive) in test [26]; 0.2 µM (active) in test [27]; 3.98 µM (active) in test [28]; > 6.31 µM (inactive) in test [29]; 0.00398 µM (active) in [30].
With `CS(=O)(=O)Nc1ccc(Nc2ccc3[nH]nc(N)c3c2)cc1`, the Ki in [29] was > 6.31 µM (inactive).
Consider `CS(=O)(=O)N(Cc1ccc2[nH]c(=O)c3cccn3c2c1)C1CC1`, for which the Ki in test [1] is > 3.98 µM (inactive); in test [2], > 1.58 µM (inactive); in test [3], > 2 µM (inactive); in test [4], 0.316 µM (active); in test [5] it was > 2.51 µM (inactive); in test [6] it was > 1.58 µM (inactive). Besides, the Ki in test [7] was > 3.98 µM (inactive); in [8], > 1.58 µM (inactive); in test [9] it was > 2.51 µM (inactive); in [10] it was > 5.01 µM (inactive); in test [11], > 3.98 µM (inactive); in test [12] it was > 3.98 µM (inactive). Further, the Ki in [31] is 0.251 µM (active); in [13] it was > 1.58 µM (inactive); in test [14], > 1.58 µM (inactive); in test [15], > 3.98 µM (inactive); in [16], > 1.26 µM (inactive); in test [17], > 3.16 µM (inactive). Besides, the Ki in test [18] was > 7.94 µM (inactive); in [19] it was 0.2 µM (active); in [20] it was > 1.58 µM (inactive); in test [21] it was 0.0631 µM (active); in [22] it was > 0.794 µM (inactive); in test [23], > 1.58 µM (inactive). The Ki in test [24] is > 1.58 µM (inactive); in test [25], > 6.31 µM (inactive); in test [26] it was > 1.58 µM (inactive); in test [27], > 3.98 µM (inactive); in test [28], > 3.98 µM (inactive); in test [30], > 2 µM (inactive).

Usually Ki stands for a dissociation constant, usually derived from enzyme kinetics or from competition with a known ligand.

For the origin of these results see ChEMBL document CHEMBL1201862, “PubChem BioAssay data set” (2004).
